Patent US7265149B2, “Indolyl derivatives” (Hoffmann-La Roche Inc., priority 2004, dated 2007)

Columns and labels:
PPARδ = biological target: T1, PPARδ (Homo sapiens, UniProt Q03181); assay: PPARδ radioligand binding assay (scintillation proximity); conditions: GST-PPARδ-LBD fusion protein on SPA beads
T1 construct: PPARδ (aa 139 to 442); made in house; host or cells: E. coli BL21 (pLysS)
T1 sequence (Q03181 139-441 limits assumed): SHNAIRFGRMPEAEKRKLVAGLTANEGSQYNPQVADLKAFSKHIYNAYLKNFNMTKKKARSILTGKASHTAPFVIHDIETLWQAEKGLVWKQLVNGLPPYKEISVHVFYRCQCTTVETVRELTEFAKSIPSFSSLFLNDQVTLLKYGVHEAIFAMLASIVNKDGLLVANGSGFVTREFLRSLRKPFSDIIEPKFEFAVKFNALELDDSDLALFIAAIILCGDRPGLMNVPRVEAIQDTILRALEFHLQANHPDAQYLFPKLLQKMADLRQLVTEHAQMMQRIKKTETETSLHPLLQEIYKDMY
Description: (§1) Background information on the performed assays can be found in: Nichols J S et al. “Development of a scintillation proximity assay for peroxisome proliferator-activated receptor gamma ligand binding domain”, (1998) Anal. Biochem. 257: 112-119.
(§2) Full-length cDNA clones for humans PPARδ and PPARα and mouse PPARγ were obtained by RT-PCR from human adipose and mouse liver cRNA, respectively, cloned into plasmid vectors and verified by DNA sequencing. Bacterial and mammalian expression vectors were constructed to produce glutathione-s-transferase (GST) and Gal4 DNA binding domain proteins fused to the ligand binding domains (LBD) of PPARδ (aa 139 to 442), PPARγ (aa 174 to 476) and PPARα (aa 167 to 469). To accomplish this, the portions of the cloned sequences encoding the LBDs were amplified from the full-length clones by PCR and then subcloned into the plasmid vectors. Final clones were verified by DNA sequence analysis.
(§3) Induction, expression, and purification of GST-LBD fusion proteins were performed in E. coli strain BL21 (pLysS) cells by standard methods (Ref: Current Protocols in Molecular Biology, Wiley Press, edited by Ausubel et al.).
(§4) Radioligand Binding Assay
PPARδ receptor binding was assayed in HNM10 (50 mM Hepes, pH 7.4, 10 mM NaCl, 5 mM MgCl2, 0.15 mg/ml fatty acid-free BSA and 15 mM DTT). For each 96 well reaction a 500 ng equivalent of GST-PPARδ-LBD fusion protein and radioligand, e.g. 20000 dpm {2-methyl-4-[4-methyl-2-(4-trifluoromethyl-phenyl)-thiazol-5-yl-ditritiomethylsulfanyl]-phenoxy}-acetic acid, was bound to 10 μg SPA beads (PharmaciaAmersham) in a final volume of 50 μl by shaking. The resulting slurry was incubated for 1 h at RT and centrifuged for 2 min at 1300 g. […] Radioligand was added and the reaction incubated at RT for 1 h and scintillation proximity counting performed in the presence of test compounds was determined. All binding assays were performed in 96 well plates and the amount of bound ligand was measured on a Packard TopCount using OptiPlates (Packard). […]

PPARγ = biological target: T2, PPARγ (Mus musculus, UniProt P37238); assay: PPARγ radioligand binding assay (scintillation proximity); conditions: GST-PPARγ-LBD fusion protein on SPA beads
T2 construct: PPARγ (aa 174 to 476); made in house; host or cells: E. coli BL21 (pLysS)
T2 sequence (P37238 174-475 isoform P37238-2): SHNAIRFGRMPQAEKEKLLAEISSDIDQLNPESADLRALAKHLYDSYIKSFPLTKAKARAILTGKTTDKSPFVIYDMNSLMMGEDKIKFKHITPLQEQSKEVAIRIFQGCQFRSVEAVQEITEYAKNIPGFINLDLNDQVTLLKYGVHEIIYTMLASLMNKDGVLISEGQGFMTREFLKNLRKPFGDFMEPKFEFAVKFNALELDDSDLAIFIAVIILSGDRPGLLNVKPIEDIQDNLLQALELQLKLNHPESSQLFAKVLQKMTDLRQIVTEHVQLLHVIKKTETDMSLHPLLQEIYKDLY
Description: as §1, §2, §3, §4
PPARγ receptor binding was assayed in TKE50 (50 mM Tris-HCl, pH 8, 50 mM KCl, 2 mM EDTA, 0.1 mg/ml fatty acid-free BSA and 10 mM DTT). For each 96 well reaction an 140 ng equivalent of GST-PPARγ-LBD fusion protein was bound to 10 μg SPA beads (PharmaciaAmersham) in a final volume of 50 ul by shaking. The resulting slurry was incubated for 1 h at RT and centrifuged for 2 min at 1300 g. The supernatant containing unbound protein was removed and the semidry pellet containig the recptor-coated beads was resolved in 50 μl of TKE. […] All binding assays were performed in 96 well plates and the amount of bound ligand measured on a Packard TopCount using OptiPlates (Packard). Nonspecific binding was determined in the presence of 10^−4 M unlabelled compound. […]

PPARα = biological target: T3, PPARα (Homo sapiens, UniProt Q07869); assay: PPARα radioligand binding assay (scintillation proximity); conditions: GST-PPARα-LBD fusion protein on SPA beads
T3 construct: PPARα (aa 167 to 469); made in house; host or cells: E. coli BL21 (pLysS)
T3 sequence (Q07869 167-468 limits assumed): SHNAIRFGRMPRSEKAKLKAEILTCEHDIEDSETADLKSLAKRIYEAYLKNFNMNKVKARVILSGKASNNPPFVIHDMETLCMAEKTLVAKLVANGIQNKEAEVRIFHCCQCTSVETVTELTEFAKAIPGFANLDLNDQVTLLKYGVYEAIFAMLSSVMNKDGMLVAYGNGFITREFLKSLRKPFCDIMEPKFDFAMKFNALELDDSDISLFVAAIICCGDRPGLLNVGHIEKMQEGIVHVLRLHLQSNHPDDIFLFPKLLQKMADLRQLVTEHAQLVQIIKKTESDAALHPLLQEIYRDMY
Description: as §1
as §2, with “analysis. […]” for “analysis.”
PPARα receptor binding was assayed in TKE50 (50 mM Tris-HCl, pH 8, 50 mM KCl, 2 mM EDTA, 0.1 mg/ml fatty acid-free BSA and 10 mM DTT). […] All binding assays were performed in 96 well plates and the amount of bound ligand measured on a Packard TopCount using OptiPlates (Packard). Nonspecific binding was determined in the presence of 10^−4 M unlabelled compound. […]

| IC50 (PPARδ) [nM] | IC50 (PPARγ) [nM] | IC50 (PPARα) [nM] | Structure (SMILES) |
| --- | --- | --- | --- |
| 140 | ≥ 10000 |  | Cc1c(-c2ccc(Cl)cc2)nn(C)c1COc1ccc2ccn(CC(=O)O)c2c1 [Example 2, {6-[5-(4-Chloro-phenyl)-2,4-dimethyl-2H-pyrazol-3-ylmethoxy]-indol-1-yl}-acetic acid] |
| 4 | ≥ 10000 | 2570 | Cn1nc(-c2ccc(C(F)(F)F)cc2)c(Br)c1COc1ccc2ccn(CC(=O)O)c2c1 [Example 8, {6-[4-Bromo-2-methyl-5-(4-trifluoromethyl-phenyl)-2H-pyrazol-3-ylmethoxy]-indol-1-yl}-acetic acid] |
| 43 | ≥ 10000 | 13 | Cn1nc(-c2ccc(OC(F)(F)F)cc2)cc1CCCOc1ccc2ccn(CC(=O)O)c2c1 [Example 20, (6-{3-[2-Methyl-5-(4-trifluoromethoxy-phenyl)-2H-pyrazol-3-yl]-propoxy}-indol-1-yl)-acetic acid] |
